Assay results reported in US8263606B2 (Xenon Pharmaceuticals Inc., priority 2008, dated 2012).

What was measured:
sodium channel = assay: Guanidine influx assay (14C-guanidine radiotracer flux, in vitro); format: cell-based, human or rat; conditions: guanidine influx assay using a known cell line that expresses a sodium channel
Summary of the method: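 Sodium channel block is measured as reduced 14C-guanidine uptake in cells stably expressing human or rat channels, stimulated with aconitine. Potency is given as IC50 from a four-parameter curve.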

CYP3A4 = CYP3A4 (Homo sapiens, UniProt P08684); assay: Cytochrome P450 (CYP450) Inhibition Assay, CYP3A4 (Vivid fluorescence, BOMCC substrate); conditions: human, P450 Baculosomes (recombinant CYP3A4), probe BOMCC (Vivid substrate)
CYP3A4, sequence (P08684 whole entry): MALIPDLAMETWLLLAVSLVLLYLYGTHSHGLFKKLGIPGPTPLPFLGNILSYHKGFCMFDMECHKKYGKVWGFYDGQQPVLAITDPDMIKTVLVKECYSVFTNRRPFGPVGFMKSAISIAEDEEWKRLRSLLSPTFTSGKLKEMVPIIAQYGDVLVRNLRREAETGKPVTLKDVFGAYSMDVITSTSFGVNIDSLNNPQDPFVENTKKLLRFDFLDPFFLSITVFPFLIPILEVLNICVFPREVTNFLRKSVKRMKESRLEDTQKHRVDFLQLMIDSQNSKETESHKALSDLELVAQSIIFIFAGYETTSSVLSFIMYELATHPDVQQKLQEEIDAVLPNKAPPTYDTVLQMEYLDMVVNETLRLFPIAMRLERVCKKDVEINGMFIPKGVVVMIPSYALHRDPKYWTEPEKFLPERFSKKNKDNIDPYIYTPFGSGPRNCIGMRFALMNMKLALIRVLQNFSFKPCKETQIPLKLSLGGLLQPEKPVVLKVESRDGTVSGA

| SMILES | melting point | IC50 (sodium channel; activity level class) | inhibition at 10 µM (CYP3A4) | IC50 (sodium channel) |
| --- | --- | --- | --- | --- |
| COc1ncc(CN2C(=O)C3(COc4cc5c(cc43)CCO5)c3ccccc32)cn1 (stereo not drawn) [Example 5, 1-[(2-methoxypyrimidin-5-yl)methyl]-5,6-dihydrospiro[benzo[1,2-b:5,4-b′]difuran-3,3′-indol]-2′(1′H)-one] | 203 to 204 °C | 100 to 1000 nM | < 50% |  |
| COCCNC(=O)c1cccc(CN2C(=O)C3(COc4cc5c(cc43)CCO5)c3ccccc32)c1 (stereo not drawn) [Example 12.1, N-(2-methoxyethyl)-3-[(2′-oxo-5,6-dihydrospiro[benzo[1,2-b:5,4-b′]difuran-3,3′-indol]-1′(2′H)-yl)methyl]benzamide] | 72 to 73 °C |  | > 50% | 100 to 1000 nM |
| CN1C(=O)COc2cc3c(cc21)C1(CO3)C(=O)N(C[C@H]2CCCO2)c2ccccc21 (stereo partly drawn) [Example 4.59, 1-methyl-1′-[(2R)-tetrahydrofuran-2-ylmethyl]-1H-spiro[furo[3,2-g][1,4]benzoxazine-8,3′-indole]-2,2′(1′H-3H)-dione] | 79 to 81 °C | 1000 to 10000 nM | < 50% |  |
| O=C1N(Cc2ncccc2C(F)(F)F)c2ccccc2C12COc1c(Cl)cc3c(c12)OCCO3 (stereo not drawn) [Example 11.108, 6-chloro-1′-{[3-(trifluoromethyl)pyridin-2-yl]methyl}-2,3-dihydrospiro[furo[3,2-f][1,4]benzodioxine-9,3′-indol]-2′(1′H)-one] | 273 to 275 °C |  | < 50% | 1000 to 10000 nM |
| Cc1ccc(NC(=O)c2cccc(CN3C(=O)C4(COc5cc6c(cc54)CCO6)c4ccccc43)c2)c(C)c1 (stereo not drawn) [Example 12.4, N-(2,4-dimethylphenyl)-3-[(2′-oxo-5,6-dihydrospiro[benzo[1,2-b:5,4-b′]difuran-3,3′-indol]-1′(2′H)-yl)methyl]benzamide] | 234 to 235 °C |  | > 50% | 100 to 1000 nM |
| N#Cc1ccc(CN2C(=O)C3(COc4cc5c(cc43)OCCO5)c3ccccc32)cc1 (stereo not drawn) [Example 4.96, 4-[(2′-oxo-2,3-dihydrospiro[furo[2,3-g][1,4]benzodioxine-8,3′-indol]-1′(2′H)-yl)methyl]benzonitrile] | 69 to 72 °C | 1 to 100 nM | > 50% |  |
| CCOCCNC(=O)c1ccc(CN2C(=O)C3(COc4cc5c(cc43)CCO5)c3ccccc32)cc1 (stereo not drawn) [Example 12.41, N-(2-ethoxyethyl)-4-[(2′-oxo-5,6-dihydrospiro[benzo[1,2-b:5,4-b′]difuran-3,3′-indol]-1′(2′H)-yl)methyl]benzamide] | 84 to 85 °C |  | > 50% | 100 to 1000 nM |
| O=C1N(Cc2cc(F)ccn2)c2ccccc2C12COc1cc3c(cc12)OCCO3 (stereo not drawn) [Example 4.110, 1-[(4-fluoropyridin-2-yl)methyl]-2,3-dihydrospiro[furo[2,3-g][1,4]benzodioxine-8,3′-indol]-2′(1′H)-one] | 228 to 231 °C | 1 to 100 nM | < 50% |  |
| COc1ccc(CN2C(=O)C3(COc4cc5c(cc43)OCCO5)c3ccccc32)cn1 (stereo not drawn) [Example 5.15, 1′-[(6-methoxypyridin-3-yl)methyl]-2,3-dihydrospiro[furo[2,3-g][1,4]-benzodioxine-8,3′-indol]-2′(1′H)-one] | 161 to 162 °C | 1 to 100 nM | < 50% |  |
| Cc1cc2c(cc1C)C1(CO2)C(=O)N(C(c2ccccc2)c2ccccc2)c2ccccc21 (stereo not drawn) [Example 2.3, 1′-(diphenylmethyl)-5,6-dimethylspiro[1-benzofuran-3,3′-indol]-2′(1′H)-one] | 193 to 195 °C | 1000 to 10000 nM | < 50% |  |
| CN(C)C(=O)c1cc(CN2C(=O)C3(COc4cc5c(cc43)OCO5)c3ccccc32)oc1C(F)(F)F (stereo not drawn) [Example 12.59, N,N-dimethyl-5-[(2′-oxospiro[furo[2,3-f][1,3]benzodioxole-7,3′-indol]-1′(2′H)-yl)methyl]-2-(trifluoromethyl)furan-3-carboxamide] | 96 to 98 °C |  | > 50% | 100 to 1000 nM |
| O=C1N(Cc2ccccn2)c2ccccc2C12COc1cc3c(cc12)OCC3 (stereo not drawn) [Example 4.52, 1′-(pyridin-2-ylmethyl)-6,7-dihydrospiro[benzo[1,2-b:4,5-b′]difuran-3,3′-indol]-2′(1′H)-one] | 198 to 200 °C | 1 to 100 nM | < 50% |  |
| CCC(CC)CNC(=O)c1cccc(CN2C(=O)C3(COc4cc5c(cc43)CCO5)c3ccccc32)c1 (stereo not drawn) [Example 12.3, N-(2-ethylbutyl)-3-[(2′-oxo-5,6-dihydrospiro[benzo[1,2-b:5,4-b′]difuran-3,3′-indol]-1′(2′H)-yl)methyl]benzamide] | 105 to 106 °C |  | > 50% | 100 to 1000 nM |
| CCc1ccc(NC(=O)c2ccccc2CN2C(=O)C3(COc4cc5c(cc43)CCO5)c3ccccc32)cc1 (stereo not drawn) [Example 12.8, N-(4-ethylphenyl)-2-[(2′-oxo-5,6-dihydrospiro[benzo[1,2-b:5,4-b′]difuran-3,3′-indol]-1′(2′H)-yl)methyl]benzamide] | > 230 °C |  | < 50% | ≥ 10000 nM |
| O=C(Nc1cccc(Cl)c1)c1ccccc1CN1C(=O)C2(COc3cc4c(cc32)CCO4)c2ccccc21 (stereo not drawn) [Example 12.13, N-(3-chlorophenyl)-2-[(2′-oxo-5,6-dihydrospiro[benzo[1,2-b:5,4-b′]difuran-3,3′-indol]-1′(2′H)-yl)methyl]benzamide] | > 230 °C |  | > 50% | 1000 to 10000 nM |
| CN(C)c1cccc(CN2C(=O)C3(COc4cc5c(cc43)OCCO5)c3ccccc32)n1 (stereo not drawn) [Example 32.2, 1-{[6-(dimethylamino)pyridin-2-yl]methyl}-2,3-dihydrospiro[furo[2,3-g][1,4]benzodioxine-8,3′-indol]-2′(1′H)-one] | 196 to 197 °C |  | > 50% | 1 to 100 nM |
| COc1ccc2c(c1)OCC21C(=O)N(Cc2cccnc2)c2ccccc21 (stereo not drawn) [Example 9.34, 6-methoxy-1′-(pyridin-3-ylmethyl)spiro[1-benzofuran-3,3′-indol]-2′(1′H)-one] | 164 to 165 °C | 1 to 100 nM | > 50% |  |
| O=C1N(C[C@H]2CCCO2)c2c(Cl)cccc2C12COc1cc3c(cc12)CCO3 (stereo partly drawn) [Example 8.1, 7′-chloro-1′-[(2R)-tetrahydrofuran-2-ylmethyl]-5,6-dihydrospiro[benzo[1,2-b:5,4-b′]difuran-3,3′-indol]-2′(1′H)-one] | 192 to 193 °C | 100 to 1000 nM | < 50% |  |
| Cc1cc(CN2C(=O)C3(COc4cc5c(cc43)OCO5)c3ccccc32)c(C)n1C(C)C (stereo not drawn) [Example 1.3, 1′-{[2,5-dimethyl-1-(1-methylethyl)-1H-pyrrol-3-yl]methyl}spiro[furo[2,3-f][1,3]benzodioxole-7,3′-indol]-2′(1′H)-one] | 169 to 171 °C | 1 to 100 nM | > 50% |  |
| N#Cc1ccc2c(c1)OCC21C(=O)N(Cc2ccccn2)c2ccccc21 (stereo not drawn) [Example 4.105, 2′-oxo-1′-(pyridin-2-ylmethyl)-1′,2′-dihydrospiro[1-benzofuran-3,3′-indole]-6-carbonitrile] | 151 to 153 °C | 1000 to 10000 nM | < 50% |  |
| N#Cc1cc2c(cc1F)OCC21C(=O)N(Cc2ccccn2)c2ccccc21 (stereo not drawn) [Example 9.48, 6-fluoro-2′-oxo-1′-(pyridin-2-ylmethyl)-1′,2′-dihydrospiro[1-benzofuran-3,3′-indole]-5-carbonitrile] | 108 to 109 °C | 1000 to 10000 nM | > 50% |  |
| O=C1N(Cc2csc(-c3ccc(C(F)(F)F)cc3)n2)c2ccccc2C12COc1cc3c(cc12)OCO3 (stereo not drawn) [Example 6.5, 1′-({2-[4-(trifluoromethyl)phenyl]-1,3-thiazol-4-yl}methyl)spiro[furo[2,3-f][1,3]benzodioxole-7,3′-indol]-2′(1′H)-one] | 151 to 153 °C | 100 to 1000 nM | > 50% |  |
| O=C1Nc2c(Cl)cccc2C12COc1cc3c(cc12)CCO3 (stereo not drawn) [Example 3.15, 7′-chloro-5,6-dihydrospiro[benzo[1,2-b:5,4-b′]difuran-3,3′-indol]-2′(1′H)-one] | > 250 °C | 100 to 1000 nM | < 50% |  |
| COCCOc1ccc2c(c1)OCC21C(=O)N(Cc2ccccn2)c2ccccc21 (stereo not drawn) [Example 5.34, 6-(2-methoxyethoxy)-1′-(pyridin-2-ylmethyl)spiro[1-benzofuran-3,3′-indol]-2′(1′H)-one] | 94 to 95 °C | 100 to 1000 nM | < 50% |  |
| O=C1Nc2ccccc2C12COc1cc3c(cc12)OCCCO3 (stereo not drawn) [Example 3.11, 3,4-dihydro-2H-spiro[furo[2,3-h][1,5]benzodioxepine-9,3′-indol]-2′(1′H)-one] | 235 to 236 °C | 1000 to 10000 nM | < 50% |  |
| CN1C(=O)[C@]2(COc3cc4c(cc32)OCO4)c2c(-c3ccoc3)cccc21 [Example 16.62, (7R)-4′-furan-3-yl-1′-methylspiro[furo[2,3-f][1,3]benzodioxole-7,3′-indol]-2′(1′H)-one] | 144 to 145 °C |  | > 50% | 100 to 1000 nM |
| O=C1N(Cc2ccccc2C(F)(F)F)c2ccccc2C12COc1cc3c(cc12)OCCO3 (stereo not drawn) [Example 4.113, 1′-[2-(trifluoromethyl)benzyl]-2,3-dihydrospiro[furo[2,3-g][1,4]benzodioxine-8,3′-indol]-2′(1′H)-one] | 207 to 208 °C | 1 to 100 nM | < 50% |  |
